Experimental data taken from a melting point compilation (Tetko et al.; mined from patent text by program, amines drawn as free bases though some values may be those of a salt).

Row | SMILES | melting point [°C]
1 | CCOP(=O)(Cc1cc2c(cc1CP(=O)(OCC)OCC)C(CC)(CC)N(Cc1ccccc1)C2(CC)CC)OCC | 81 to 83
2 | O=C1CSC(=S)N1N=c1sc2ccc(Cl)cc2s1 | 312 to 314
3 | COc1ccc([N+](=O)[O-])c2c1CC(C)(C)O2 | 135 to 136
4 | O=S(=O)(NC[C@@H](CO)NC(c1ccccc1)(c1ccccc1)c1ccccc1)c1ccc(Oc2ccccc2)cc1 | 67 to 70
5 | NC(=O)CN1C(=O)CN2C(=O)CCC12 (stereo not given) | 182 to 185
6 | O=C(NC(=O)C(Cl)CCl)Nc1cccc(Cl)c1Cl (stereo not given) | 195 to 196
7 | CC12CCC3C(=C1CCC2=O)C=CC1=CC(=O)CCC13CO (stereo not given) | 264 to 265
8 | COC(=O)c1ccc(C(=O)CCCOC(C)=O)cc1 | 61 to 62
9 | CN(Cc1ccc(Cl)nc1)C(N)=N[N+](=O)[O-] | 158
10 | CSCc1c(N)c(Br)cc(F)c1F | 60 to 61
11 | CCOC1CCC2C3CCc4cc(OC)ccc4C3CCC12CC (stereo not given) | 74 to 77
12 | N#Cc1nn(-c2c(Cl)cc(C(F)(F)F)cc2Cl)c(N2CCCC2)c1S(=O)(=O)C(F)(F)F | 187 to 189
13 | CS(=O)(=O)C1(F)Cc2cc(Cl)ccc2C1=O (stereo not given) | 150
14 | O=Cc1ccc2c(c1)NC(=O)CO2 | 220 to 222
15 | CSc1sc(-c2nccs2)c2c1C(=O)CCC2(C)C | 188 to 190
16 | CCCC(=O)N1N=C(c2ccc([N+](=O)[O-])cc2)c2cc(Cl)c(Cl)cc2CC1C (stereo not given) | 75 to 77
17 | CN1C(=O)[C@H](NC(=O)/C=C/c2ccccc2Br)N=C(c2ccccc2)c2ccccc21 | 113 to 116
18 | CNc1n[nH]c(=S)n1C | 213
19 | CCOC(=O)C1(C(=O)Nc2ccc(Cl)cc2CC)CC1 | 77 to 80
20 | COc1cc(CCCn2ccnc2)ccc1OCc1coc(-c2ccc(C)s2)n1 | 92 to 93
21 | CCCCN1C(=O)CC(Sc2cc(C(C)(C)C)c(O)c(C(C)(C)C)c2)C1=O (stereo not given) | 80 to 85
22 | Nc1ccc(Oc2ccc(Oc3ccc(S(=O)(=O)c4ccc(Oc5ccc(Oc6ccc(N)cc6)cc5)cc4)cc3)cc2)cc1 | 212 to 214
23 | CN(C)c1ncc(-c2ccc(Cl)cc2Cl)c(N)n1 | 151
24 | CCc1cc(C(=O)OC)nn1C | 188 to 191

Row | SMILES | melting point [°C]
25 | O=C1CCC(CCO)N1 (stereo not given) | 52 to 52.5
26 | Cc1c(CCl)ncn1S(=O)(=O)N(C)C | 115 to 118
27 | COC(=O)CCC(C)C1CCC2C3CCC4CC(N=[N+]=[N-])CCC4(C)C3CC(=O)C12C (stereo not given) | 153
28 | O=C(O)CCC(=O)N1C2CCC(C2)C1C(=O)O (stereo not given) | 132 to 135
29 | Nc1c(Cl)cc(C2=NNC(=O)Cc3cc4c(cc32)OCO4)cc1Cl | 149 to 151
30 | CCCCCC(CC(=O)Nc1cc(C(=O)O)ccc1C(C)(C)C)c1ccc(C(=O)CCC)cc1OC (stereo not given) | 136 to 138
31 | O=c1oc2ccc(Cl)cc2cc1S(=O)(=O)Cc1ccc(Cl)c([N+](=O)[O-])c1 | 272 to 275
32 | OCCC(c1ccccc1)C(O)(c1ccccc1)c1ccc(OCc2ccccc2)cc1 (stereo not given) | 109 to 115
33 | CCOC(OCC)c1c(C#N)cnn1-c1cc(SC)n(C)n1 | 154 to 158
34 | Nc1nc(Cl)c2c(n1)OCC2 | 258 to 263
35 | O=C(Nc1ccccc1)NN1CCN(CCc2c[nH]c3ccccc23)CC1 | 168 to 171
36 | CCCCCCCCCCCCCCCCCC(=O)OC1CC(C)(C)N(OC2CCCCC2)C(C)(C)C1 | 44 to 47
37 | CC#CCOc1ccc(S(=O)(=O)N(C)C(C(=O)NO)c2ccc(OCCCNC(=O)OCC)cc2)cc1 (stereo not given) | 60 to 62
38 | CCOC(=O)CC(=O)NNC(=O)c1cc2cccc(N(C)S(=O)(=O)c3cccs3)c2[nH]1 | 119 to 121
39 | Cn1ncc(N)c1NCCO | 94 to 97
40 | S=C(NCN1CCOCC1)C(CN1CCOCC1)c1ccccn1 (stereo not given) | 109 to 111
41 | CCNC(=O)c1cc([Si](C)(C)C)sc1[Si](C)(C)C | 106 to 111
42 | Oc1cc(Br)ccc1Br | 71 to 74
43 | Clc1cc(N2CCCC2)nc(Cl)n1 | 100 to 104
44 | Cn1nc(-c2c(Cl)cncc2Cl)nc1Cc1ccc(Cl)cc1Cl | 79 to 81
45 | Cn1c(=O)c2c(nc(CCc3cccc(N)c3)n2C)n(C)c1=O | 158 to 160
46 | O=C(C=Cc1ccccc1O)C=Cc1ccccc1O | 155
47 | CN1N(c2ccccc2)C(=O)C(F)(F)C1(C)O (stereo not given) | 132 to 134
48 | CCc1cc(Br)c2c(c1)NC(=O)C2=O | 219 to 220

Continued, values first:

Row | melting point [°C] | SMILES
49 | 99 to 100 | COC(=O)c1cccc(OCCCNC(=O)C[C@H]2O[C@H](c3cccc(OC)c3OC)c3cc(Cl)ccc3N(CC(C)(C)CO)C2=O)c1
50 | 190 to 191 | COc1ccc(C=Cc2oc3ccc(C#N)cc3c2C(C)=O)cc1
51 | 129 to 130 | CC(C)(C)Oc1ccc(OC(=O)N2CCOCC2)cc1
52 | 221 to 222 | Cc1nc(N)nc(N)c1-c1ccc2ccccc2c1
53 | 77 | COC(=O)c1cccc2nc(-c3ccccc3)oc12
54 | 84 to 86 | CN1C(=O)SC(C)(C)[C@@H]1[C@@H](CS(=O)(=O)c1ccc(Oc2ccc(OC(F)(F)F)cc2)cc1)N(O)C=O
55 | 219 to 220 | CC(=O)c1ccc2c(c1)S(=O)(=O)c1cc(C(C)=O)ccc1O2
56 | 144 to 145 | CC(=O)OC1CCC2(C)C(=CCC3C2CC(c2cccnc2)C2(C)C=CCC32)C1 (stereo not given)
57 | 180 | CC(=O)Nc1cc2c(cc1O)CCN(Cc1ccccc1)CC2c1ccccc1 (stereo not given)
58 | 113 | COC(=O)COc1cc(C)c(SCc2sc(-c3ccc(C(F)(F)F)cc3)nc2C)c(C)c1
59 | 121 to 124 | COc1ccc2c(c1)CCC1C2CCC2(C)C(O)CCC12 (stereo not given)
60 | 74 to 76 | Fc1ccc(Cl)c2ncccc12
61 | 197 to 199 | CCOC(=O)c1cnc2c3ccccc3ccn2c1=N
62 | 223 to 224 | CN(c1cccc2cc(C(N)=O)[nH]c12)S(=O)(=O)c1ccccc1C(F)(F)F
63 | 143 to 144 | COc1cc(CN2CCN(Cc3ccc(NC(=O)C4=Cc5cc(-c6ccc(C)cc6)ccc5CC4)cc3)CC2)cc(OC)c1OC
64 | 173 to 176 | COC1CCN(c2cc(NC(=O)OC(C)(C)C)c(N)cc2C#Cc2ccccc2)CC1
65 | 142 to 145 | CCOC(=O)c1c(S(=O)C(C)C)c2cc(OCc3ccccc3)ccc2n1C (stereo not given)
66 | 234 to 236 | c1cc(-c2ccc(N3CCCN(c4ccc(-c5ccsc5)cn4)CC3)nc2)cs1
67 | 196 to 198 | CCn1c(=O)ccc2cnc(Nc3ccc(OC)c(F)c3)nc21
68 | 170 to 172 | COc1ccc(-n2c3ccccc3c3cc(C(C#N)=C(C#N)c4cc(C(F)(F)F)cc(C(F)(F)F)c4)ccc32)cc1
69 | 110 to 114 | COc1ccc(C(=O)C(C)NC(=O)C(F)(F)F)cc1 (stereo not given)
70 | 120 to 121 | CCn1ncc(CC(=O)O)c1OCCCc1cn(-c2ccc(C(F)(F)F)cn2)nc1C(C)C
71 | 89 to 90 | CC(C)c1c(Sc2ccc(O)cc2)n(C)c2ccccc12
72 | 178 to 180 | CN(C)c1c(C(=O)c2ccccc2)[nH]c2cc(Cl)ccc12
73 | 121 to 122 | COc1ccc(CCN2CCc3cc(OC[C@H]4CO[C@](Cn5ccnc5)(c5ccc(Cl)cc5Cl)O4)ccc3C2)cc1 (racemic)
74 | 50 to 57 | COC(=O)Cc1ccc(CNC(=O)C2Cc3ccccc3N2S(=O)(=O)c2ccc(-c3cccc(C(F)(F)F)c3)cc2)c(F)c1 (stereo not given)

Row | melting point [°C] | SMILES
75 | 193 to 195 | N#Cc1cc2c(cc1F)OCC21C(=O)N(Cc2ccccc2C(F)(F)F)c2ccccc21 (stereo not given)
76 | 190 to 191 | COc1ccc(Cc2nc3n(c2Cc2ccc(OC)cc2)CCS3=O)cc1 (stereo not given)
77 | 116 to 117 | CCCCC1(COC(=O)C(C)(C)C)C(=O)N(c2ccccc2)N(c2ccccc2)C1=O
78 | 185 | O=S(=O)(NCc1ccnc2c(Cl)cccc12)c1ccc(Br)cc1
79 | 34 to 36 | Cc1ccc(N2CCN(c3cccc(Cl)c3)C2C(Cl)(Cl)Cl)cc1 (stereo not given)
80 | 143 to 144 | COc1cc(OC)cc(N2CCN(C(=O)Nc3cc4c(nc3OC)CCC4)CC2)c1
81 | > 250 | CC(CC1CNc2nc(N)nc(O)c2C1)c1ccc(C(=O)N[C@@H](CCC(=O)O)C(=O)O)cc1 (stereo not given in full)
82 | 158 to 159 | O=C(Nc1ccccc1)c1ccc(O)c(Nc2ccccc2)c1
83 | 164 to 165 | NC(=O)CNC(=O)c1cccc(-c2cccc3cc(COc4cc(Cl)cc(Cl)c4)sc23)c1
84 | 121 to 122 | Cc1ccc(-c2oncc2CCC(=O)O)cc1
85 | 90 to 91 | CC(=O)Oc1ccc(-c2nn(C3CCCC3)c3c(F)cccc23)cc1
86 | > 250 | CNCC1Cc2cccc(-c3c(C)cccc3C)c2O1 (stereo not given)
87 | 186 to 188 | O=C(O)COc1ccc(-c2cc(O)c(Sc3ccccc3)c(=O)o2)cc1
88 | 107 to 109 | CC(O)c1cccc(C=Cc2ccc3cc(F)ccc3n2)c1 (stereo not given)
89 | 137 to 139 | FC(F)(F)c1cccc(C2=NN3CCN=C3C=C2)c1
90 | 100 to 101 | C/C(=C\CC1OC(=O)NC1=O)c1cccc(OCCc2nc(-c3ccccc3)oc2C)c1 (stereo not given)
91 | 147 to 150 | CCOC(=O)c1ccc(N2CCN(C(=O)c3ccc(Cl)cc3)CC2)cc1
92 | 130 to 134 | COc1cc([N+](=O)[O-])c2nc(OCc3ccc(Cl)cc3)ccc2c1
93 | 126 to 128 | COc1ccc(-n2nc3c(cc2=O)CCSc2sccc2-3)cc1
94 | 219 | CC(C)(C)OC(=O)N1CCC(OCc2ccccc2)C1CC(O)Cn1cnc2cccc(F)c2c1=O (stereo not given)
95 | 249 | CC(C)n1cc(-c2nc(C(N)=O)c(N)nc2-c2cc(F)cc(F)c2)ccc1=O
96 | 97 | O=C(O)c1ccccc1OCCN1CCC(c2cn(CC3CC3)c3cc(F)ccc23)CC1
97 | 186 to 188 | CC(OC(=S)Nc1ccc(-c2ncn(-c3ccc(OC(F)(F)F)cc3)n2)cc1)c1ccc(C(F)(F)F)nc1 (stereo not given)
98 | 130 | FC(F)(F)c1ccc(-c2cc(C(F)(F)F)n3ncc(I)c3c2)cc1
99 | 119 to 123 | CCOC(=O)c1cnc2c(I)cc(COC(C)=O)cc2c1O
100 | 197 to 200 | O=C(O)CCc1cc(C(=O)c2cccc(C(=O)O)c2)ccc1O
